Laboratory results: patent US10220029B2, “Pharmaceutical composition comprising glutarimide derivatives and use thereof in the treatment of eosinophilic diseases” (OBSCHESTVO S ORGANICHENNOI OTVETSTVENNOSTIYU …, priority 2013, dated 2019)

Test system: model of sephadex-induced eosinophilic lung inflammation in rats
Assay: Content of cell elements in BAL in the model of sephadex-induced eosinophilic lung inflammation in rats
Type: in vivo, male Wistar rats
Conditions: Table 8, four times, BAL 48 hours after sephadex, n = 10
Procedure: The model of sephadex-induced eosinophilic lung inflammation in rats was realized by a standard method [Evaldsson C, Rydén I, Uppugunduri S. Isomaltitol exacerbates neutrophilia but reduces eosinophilia: new insights into the sephadex model of lung inflammation//Int Arch Allergy Immunol. 2011; 154(4):286-94]. Sephadex G-200 (Pharmacia, Sweden) was administered one time by inhalation to male Wistar rats at a dose of 5 mg/kg. The studied compounds were administered to the animals by the intragastric route four times: 24 hours and 1 hour before and 24 hours and 45 hours after administration of sephadex. The reference preparation, budesonide, was administered according to the same scheme, by inhalation at a dose of 0.5 mg/kg. Bronchoalveolar lavage was taken 48 hours after the inhalation of sephadex, and the total lymphocyte count and leukocyte formula in the lavage were determined. The number of rats in a group was 7 to 10.

SMILES: O=C1CCCC(=O)N1CCc1cnc[nH]1 [Compound 1, 1-(2-(1H-imidazol-4-yl)ethyl)piperidine-2,6-dione]
- Eosinophils, content of cell elements in 1 μL of BAL (0.06 mg/kg intragastric): 118 ± 27*& in 1 μL of BAL
- Leukocytes, content of cell elements in 1 μL of BAL (0.06 mg/kg intragastric): 2500 ± 307 in 1 μL of BAL
- Lymphocytes, content of cell elements in 1 μL of BAL (0.06 mg/kg intragastric): 128 ± 48 in 1 μL of BAL
- Macrophages, content of cell elements in 1 μL of BAL (0.06 mg/kg intragastric): 1417 ± 131 in 1 μL of BAL
- Neutrophils, content of cell elements in 1 μL of BAL (0.06 mg/kg intragastric): 837 ± 231 in 1 μL of BAL
- Eosinophils, content of cell elements in 1 μL of BAL (0.18 mg/kg intragastric): 174 ± 64*& in 1 μL of BAL
- Leukocytes, content of cell elements in 1 μL of BAL (0.18 mg/kg intragastric): 2665 ± 455 in 1 μL of BAL
- Lymphocytes, content of cell elements in 1 μL of BAL (0.18 mg/kg intragastric): 143 ± 54 in 1 μL of BAL
- Macrophages, content of cell elements in 1 μL of BAL (0.18 mg/kg intragastric): 1661 ± 260 in 1 μL of BAL
- Neutrophils, content of cell elements in 1 μL of BAL (0.18 mg/kg intragastric): 597 ± 168 in 1 μL of BAL
- Eosinophils, content of cell elements in 1 μL of BAL (0.54 mg/kg intragastric): 126 ± 43*& in 1 μL of BAL
- Leukocytes, content of cell elements in 1 μL of BAL (0.54 mg/kg intragastric): 2120 ± 218*& in 1 μL of BAL
- Lymphocytes, content of cell elements in 1 μL of BAL (0.54 mg/kg intragastric): 196 ± 63 in 1 μL of BAL
- Macrophages, content of cell elements in 1 μL of BAL (0.54 mg/kg intragastric): 1446 ± 113 in 1 μL of BAL
- Neutrophils, content of cell elements in 1 μL of BAL (0.54 mg/kg intragastric): 352 ± 135 in 1 μL of BAL
- Eosinophils, content of cell elements in 1 μL of BAL (1.8 mg/kg intragastric): 129 ± 44*& in 1 μL of BAL
- Leukocytes, content of cell elements in 1 μL of BAL (1.8 mg/kg intragastric): 1915 ± 250*& in 1 μL of BAL
- Lymphocytes, content of cell elements in 1 μL of BAL (1.8 mg/kg intragastric): 122 ± 49 in 1 μL of BAL
- Macrophages, content of cell elements in 1 μL of BAL (1.8 mg/kg intragastric): 1214 ± 130 in 1 μL of BAL
- Neutrophils, content of cell elements in 1 μL of BAL (1.8 mg/kg intragastric): 451 ± 149 in 1 μL of BAL
- Eosinophils, content of cell elements in 1 μL of BAL (5.4 mg/kg intragastric): 152 ± 56*& in 1 μL of BAL
- Leukocytes, content of cell elements in 1 μL of BAL (5.4 mg/kg intragastric): 2340 ± 322 in 1 μL of BAL
- Lymphocytes, content of cell elements in 1 μL of BAL (5.4 mg/kg intragastric): 170 ± 45 in 1 μL of BAL
- Macrophages, content of cell elements in 1 μL of BAL (5.4 mg/kg intragastric): 1525 ± 199 in 1 μL of BAL
- Neutrophils, content of cell elements in 1 μL of BAL (5.4 mg/kg intragastric): 492 ± 129 in 1 μL of BAL
- Eosinophils, content of cell elements in 1 μL of BAL (18 mg/kg intragastric): 69 ± 22*& in 1 μL of BAL
- Leukocytes, content of cell elements in 1 μL of BAL (18 mg/kg intragastric): 2135 ± 205*& in 1 μL of BAL
- Lymphocytes, content of cell elements in 1 μL of BAL (18 mg/kg intragastric): 168 ± 44 in 1 μL of BAL
- Macrophages, content of cell elements in 1 μL of BAL (18 mg/kg intragastric): 1601 ± 134 in 1 μL of BAL
- Neutrophils, content of cell elements in 1 μL of BAL (18 mg/kg intragastric): 297 ± 89*& in 1 μL of BAL
